Laboratory results as given in US20090184062A1, “METHOD FOR INHIBITING BIOFILM GROWTH” (PPG INDUSTRIES OHIO, INC., priority 2008, published 2009).
Marks after values point to notes of the source that are not given here.

Legend:
[1] = test system: Sphaerotilus natans (ATCC 15291) biofilm; assay: Biocidal effect on an existing Sphaerotilus natans biofilm in Erlenmeyer flasks (agar plate count of surviving organisms); format: cell-based
Method: In the following examples, the sheathed filamentous bacterium Sphaerotilus natans (ATCC 15291) was used. A freeze-dried sample of the bacterium was obtained from the American Type Culture Collection (ATCC, Rockville, Md.). ATCC growth medium (CYGA #1103 broth) was prepared by dissolving (per liter of tap water): 5 grams casitone (pancreatic digest of casein, Difco #225930), which is available from Voight Global Distributions, Inc., Lawrence, Kans.; 10 grams of glycerol; and 1 gram of yeast extract. The growth medium was sterilized at 120° C. for 15 minutes. The sample of Sphaerotilus natans obtained from ATCC was cultured in the CYGA growth medium and transferred to agar plates prepared from CYGA medium plus 1.5 weight percent agar. The agar plates were incubated at 30° C. The bacterium from these agar plates was transferred (subcultured) every few weeks to fresh agar plates to maintain the viability of the microorganism.
3-chloro-4,4-dimethyl-2-oxazolidinone (DMO-Cl) reagent was prepared by manually mixing a selected amount of 4,4-dimethyl-2-oxazolidinone (DMO) and a hypochlorite-containing stock solution in an Erlenmeyer flask, and allowing the mixture to stand for 8-10 hours at room temperature (about 23° C.) prior to use in the experiments. The hypochlorite-containing stock solution was prepared by dissolving calcium hypochlorite in deionized water in an Erlenmeyer flask. The amount of calcium hypochlorite used provided a hypochlorite concentration of approximately 1000 mg/L. The DMO used was Sustains Summer Shield (approximately 17.5 wt. % DMO, density of 1.14 g/mL), which is available from PPG Industries, Inc. The mixture was diluted to the desired concentration with sterile tap water before use in the experiments. Sterile tap water used in the experiments was prepared by autoclaving tap water at 120° C. for 15 minutes. The sterile tap water contained no measurable level of chlorine.
A loop full of Sphaerotilus natans (S. Natans) from an Agar plate containing the S. Natans culture was inoculated in 150 mL of CYGA #1103 growth medium and agitated in a temperature-controlled shaker at 30° C. and 150 rpm for 20 hours to prepare a pre-culture. Five (5) mL of this pre-culture were inoculated into each of a series of 250 mL Erlenmeyer flasks containing 150 mL of CYGA growth medium for batch cultivation of the S. Natans. The bacterium were cultivated at 30° C. for 96 hours on a rotary shaker at 150 rpm. At these conditions, a biofilm layer approximately 2-3 mm high formed on the inside wall of each of the Erlenmeyer flasks near the liquid surface. Approximately 50 to 75 percent of the liquid growth medium in the flasks was carefully decanted, leaving the biofilm layer intact. The decanted liquid growth medium was discarded.
For the control, sterile tap water was added to an Erlenmeyer flask. In other tests (as shown in Table I), various levels of hypochlorous acid (HOCl) or 3-chloro-4,4-dimethyl-2-oxazolidinone (DMO-Cl) were added to an Erlenmeyer flask. The amount of tap water used was approximately equal to the volume of decanted growth medium. The flasks were placed on a temperature controlled rotary shaker (30° C., 150 rpm) for 60 minutes. Total chlorine and free chlorine levels in the liquid medium in the flasks were measured at the beginning and at the end of the 60 minute contact time. At the end of the 60 minute contact time, the biofilm ring was carefully scraped from the flask surface and added to the liquid medium in the flask to ensure that the liquid medium contained the entire biofilm population for enumeration. The liquid in the flask was vigorously agitated to uniformly disperse the organisms. The liquid in the flask was sampled and serially diluted in sterile tap water for agar plating to enumerate the surviving organisms. Agar plating was performed in duplicate and the number of microorganism colonies counted after 48 hours of growth at approximately 30° C. […]

[2] = Total and free chlorine levels in the liquid medium at the end of the contact time (Hach DPD test kit); format: physicochemical; conditions: for End FC (free chlorine after one hour) / End TC (total chlorine after one hour): Table I, after 60 min with biofilm, expressed as mg/L Cl2; for End FC (free chlorine at end) / End TC (total chlorine at end): Table II, 30 min contact, as Cl2
Method: For the control, sterile tap water was added to an Erlenmeyer flask. In other tests (as shown in Table I), various levels of hypochlorous acid (HOCl) or 3-chloro-4,4-dimethyl-2-oxazolidinone (DMO-Cl) were added to an Erlenmeyer flask. The amount of tap water used was approximately equal to the volume of decanted growth medium. The flasks were placed on a temperature controlled rotary shaker (30° C., 150 rpm) for 60 minutes. Total chlorine and free chlorine levels in the liquid medium in the flasks were measured at the beginning and at the end of the 60 minute contact time. At the end of the 60 minute contact time, the biofilm ring was carefully scraped from the flask surface and added to the liquid medium in the flask to ensure that the liquid medium contained the entire biofilm population for enumeration. The liquid in the flask was vigorously agitated to uniformly disperse the organisms. The liquid in the flask was sampled and serially diluted in sterile tap water for agar plating to enumerate the surviving organisms. Agar plating was performed in duplicate and the number of microorganism colonies counted after 48 hours of growth at approximately 30° C.
The procedure of Example 1 was followed except that the concentration of DMO-Cl was varied from 15 μL/L to 60 μL/L, and the contact time was 30 minutes to allow a better opportunity for survival and detection of the S. Natans microorganism. Symbols and footnotes used in Table II that are the same as those found in Table I have the same meaning.

[3] = Table I, 60 min contact, initial total chlorine 5.4 mg/L (DMO-Cl prepared with 50 μL/L Sustain Summer Shield), average of duplicates
[4] = Table I, 60 min contact, initial total chlorine about 1 mg/L (HOCl 1.1; DMO-Cl 1.04, prepared with 50 μL/L Sustain Summer Shield, approx. 10 mg/L DMO), average of duplicates
[5] = initial total chlorine 5.4 mg/L
[6] = initial total chlorine about 1 mg/L (HOCl 1.1; DMO-Cl 1.04)
[7] = DMO-Cl prepared with 15 μL/L Sustain Summer Shield, initial total chlorine 1.2 mg/L
[8] = DMO-Cl prepared with 30 μL/L Sustain Summer Shield, initial total chlorine 1.18 mg/L
[9] = DMO-Cl prepared with 60 μL/L Sustain Summer Shield, initial total chlorine 1.19 mg/L
[10] = HOCl, initial total chlorine 1.1 mg/L

End FC (free chlorine at end) [2, 10] [mg/L]	End TC (total chlorine at end) [2, 10] [mg/L]	Compound	control of biofilm in words ([1]; between 50 and 60 μL/L of DMO with a source of free available chlorine, contact times between 30 and 60 minutes)	Final Cell Count [1, 3] [cfu/mL]	Final Cell Count [1, 4]	Final Cell Count ([1]; Table II, 30 min contact, DMO-Cl prepared with 15 μL/L Sustain Summer Shield (approx. 3 mg/L DMO), initial total chlorine 1.2 mg/L)	Final Cell Count ([1]; Table II, 30 min contact, DMO-Cl prepared with 30 μL/L Sustain Summer Shield (approx. 6 mg/L DMO), initial total chlorine 1.18 mg/L)	Final Cell Count ([1]; Table II, 30 min contact, DMO-Cl prepared with 60 μL/L Sustain Summer Shield (approx. 12 mg/L DMO), initial total chlorine 1.19 mg/L) [cfu/mL]	reduction in viable cell numbers ([1]; existing S. Natans biofilm, 60 minutes contact time (Table I)) [log]	End FC (free chlorine after one hour) [2, 5] [mg/L]	End TC (total chlorine after one hour) [2, 5] [mg/L]	End FC (free chlorine after one hour) [2, 6] [mg/L]	End TC (total chlorine after one hour) [2, 6] [mg/L]	End FC (free chlorine at end) [2, 7] [mg/L]	End TC (total chlorine at end) [2, 7] [mg/L]	End FC (free chlorine at end) [2, 8] [mg/L]	End TC (total chlorine at end) [2, 8] [mg/L]	End FC (free chlorine at end) [2, 9] [mg/L]	End TC (total chlorine at end) [2, 9] [mg/L]	Final Cell Count ([1]; Table II, 30 min contact, HOCl, initial total chlorine 1.1 mg/L)
		CC1(C)COC(=O)N1 [DMO, 4,4-dimethyl-2-oxazolidinone]	complete control																	
		CC1(C)COC(=O)N1Cl [DMO-Cl, 3-chloro-4,4-dimethyl-2-oxazolidinone]		0	25^a cfu/mL	2.1 × 10^4 cfu/mL	1.6 × 10^4 cfu/mL	0	≥ 3	0.2	4.7	0.1	0.4	0.05	0.52	0.07	0.47	0	0.41	
0.1	0.31	OCl [HOCl, Hypochlorous Acid, reference compound]		0	1.9 × 10^4 cfu/mL					1.6	3.1	0	0.3							2.3 × 10^4 cfu/mL
